Data: US20250213701A1, “MEDICAMENT FOR TREATING HUMAN TUMOR BASED ON ERF3A-TARGETING PROTEOLYSIS MECHANISM” (SUZHOU DEGEN BIO-MEDICAL CO., LTD., priority 2022, published 2025)

Legend:
[1] = system: ARV7; assay: Western blot assay in 22Rv1 cells: ARV7; type: cell-based, human; settings: different concentrations at 24 h, and 3 nM at different time points (FIGS. 7 and 8)
From the text: Example 84: Western Blot Assay of Compound C59 in 22Rv1, PC-3, and HepG2 Cells
(1) Materials: 22Rv1, PC-3, and HepG2 cell, anti-SRD5A1 antibody (ab167606), anti-SRD5A2 antibody (ab124877), anti-SRD5A3 antibody (PA5-107029), anti-androgen receptor (AR) antibody (CST, No. 5153), anti-GSPT1 antibody (Abcam, ab234433), anti-GADPH antibody (CST, No. 5174), anti-c-Myc antibody (CST, No. 8583), anti-α-tublin antibody (CST, No. 2125), anti-rabbit IgG, HRP-linked antibody (CST, No. 7074), electrophoresis device and membrane transfer device (LIUYI, BEIJING; DYCZ-24DN)
Cell seeding: 22Rv1 (Cell Bank of the Chinese Academy of Sciences, TCHu100), PC-3 (Cell Bank of the Chinese Academy of Sciences, SCSP-532) and HepG2 cells (Cell Bank of the Chinese Academy of Sciences, TCHu72) were subcultured and trypsinized to prepare 6×10^5 cells/mL suspensions, seeded on 6-well plates (3 mL/well), and cultured overnight in a cell incubator at 5% CO2 and 37° C. […]
Protein quantification: The protein was quantified using a BCA protein quantification kit. […]
Western immunoblot assay (or Western blot, WB): SDS-PAGE gel at a proper concentration was prepared according to the molecular weight of the target protein: for example, the concentration of the separation gel was 8% and the concentration of the stacking gel was 5%. The loading volume was adjusted according to the protein quantification results. […]

[2] = system: C-33 A cells; assay: Anti-proliferative toxicity of C63 in tumor cell lines (CCK8): C-33 A; type: cell-based; settings: Homo sapiens, 72 h, 3 days, read-out: Inhibition rate
Protocol: (§1) Example 83: Detection of Anti-Proliferative Toxicity of C63 in Some Tumor Cell Lines
C-33 A cells (purchased from the Cell Bank of the Chinese Academy of Sciences, Cat. No. TCHu176) were subcultured in a culture medium (MEM medium+1% penicillin-streptomycin dual-antibiotic solution+10% fetal bovine serum) in an incubator at 5% carbon dioxide and 37° C.
C-33 A cells were seeded at 5000 cells/well (90 μL) on a 96-well plate and cultured for 24 h.
(§2) 10 mM compound stock solutions were prepared in DMSO.
(§3) The compound stock solution was diluted with DMSO to give DMSO solutions 1-9 at concentrations of 0 μM, 2500 μM, 500 μM, 100 μM, 20 μM, 4 μM, 0.8 μM, 0.16 μM, and 0.032 μM.
(§4) 2 μL of each of solutions 1-9 was added to 98 μL of the medium to give mixed solutions 11-19 of the compound and the medium.
(§5) 10 μL of each of solutions 11-19 was added to the above cell seed solution to give a total volume of 100 μL (90 μL+10 μL).
(§6) The concentrations of the compound in the wells were 0 μM, 5.0 μM, 1.0 μM, 0.2 μM, 0.04 μM, 0.008 μM, 0.0016 μM, 0.00032 μM, and 0.000064 μM. All concentrations were in triplicate.
(§7) After the above-treated cells were cultured for 3 days, 10 μL of the CCK8 solution (DOJINDO, Cat. No. PF725) was added to each well. The plate was incubated in an incubator at 37° C. for 1-4 h and then detected on a microplate reader for the reading at 450 nm.

[3] = system: PANC-1 cells; assay: Anti-proliferative toxicity of C63 in tumor cell lines (CCK8): PANC-1; type: cell-based; settings: Homo sapiens, 72 h, 3 days, read-out: Inhibition rate
Protocol: as §1
PANC-1 cells (purchased from the Cell Bank of the Chinese Academy of Sciences, Cat. No. SCSP-535) were subcultured in a culture medium (DMEM medium+1% penicillin-streptomycin dual-antibiotic solution+10% fetal bovine serum) in an incubator at 5% carbon dioxide and 37° C.
PANC-1 cells were seeded at 5000 cells/well (90 μL) on a 96-well plate and cultured for 24 h.
as §2, §3, §4, §5, §6, §7

[4] = system: HGC-27 cells; assay: Anti-proliferative toxicity of C63 in tumor cell lines (CCK8): HGC-27; type: cell-based; settings: Homo sapiens, 72 h, 3 days, read-out: Inhibition rate
Protocol: as §1
HGC-27 cells (purchased from the Cell Bank of the Chinese Academy of Sciences, Cat. No. TCHu22) were subcultured in a culture medium (RPMI-1640 medium+1% penicillin-streptomycin dual-antibiotic solution++20% fetal bovine serum) in an incubator at 5% carbon dioxide and 37° C.
HGC-27 cells were seeded at 3000 cells/well (90 μL) on a 96-well plate and cultured for 24 h.
as §2, §3, §4, §5, §6, §7

## C[C@]12C=CC(=O)N[C@@H]1CC[C@@H]1[C@@H]2CC[C@]2(C)[C@@H](C(=O)Nc3cccc(N[C@@H]4CCC[C@@H](Nc5cccc6c5C(=O)N(C5CCC(=O)NC5=O)C6=O)C4)c3)CC[C@@H]12 (stereo partly drawn) [C59, N-(3-(N—(N-(4-(2-(3-(2,6-dioxopiperidine))-isoindole-1,3-dione))-1R,3R-cyclohexanediamine))phenyl)-3-oxo-4-aza-5α-androst-1-ene-17β-carboxamide]
[1]
  downregulation of ARV7 protein (Western blot): downregulation

## C[C@]12C=CC(=O)N[C@@H]1CC[C@@H]1[C@@H]2CC[C@]2(C)[C@@H](C(=O)Nc3cccc(N[C@@H]4CCC[C@@H](Nc5cccc6c5C(=O)N([C@H]5CCC(=O)NC5=O)C6=O)C4)c3)CC[C@@H]12 [C63, N-(3-(N—(N-(4-(2-(3S-(2,6-dioxopiperidine))-isoindole-1,3-dione))-1R,3R-cyclohexanediamine))phenyl)-3-oxo-4-aza-5α-androst-1-ene-17β-carboxamide]
[2]; 0.000064 μM
  inhibition at 64 pM: 21.5%
[2]; 0.000320 μM
  inhibition at 0.00032 µM: 15.9%
[2]; 0.001600 μM
  inhibition at 0.0016 µM: 25.4%
[2]; 0.008000 μM
  inhibition at 0.008 µM: 35.5%
[2]; 0.040000 μM
  inhibition at 0.04 µM: 48.3%
[2]; 0.200000 μM
  inhibition at 0.2 µM: 56.7%
[2]; 1.000000 μM
  inhibition at 1 µM: 63.9%
[2]; 5.000000 μM
  inhibition at 5 µM: 72.3%
[3]; 0.000064 μM
  inhibition at 64 pM: 21.2%
[3]; 0.000320 μM
  inhibition at 0.00032 µM: 12.8%
[3]; 0.001600 μM
  inhibition at 0.0016 µM: 25.3%
[3]; 0.008000 μM
  inhibition at 0.008 µM: 31.6%
[3]; 0.040000 μM
  inhibition at 0.04 µM: 36.3%
[3]; 0.200000 μM
  inhibition at 0.2 µM: 42.1%
[3]; 1.000000 μM
  inhibition at 1 µM: 48.7%
[3]; 5.000000 μM
  inhibition at 5 µM: 52.8%
[4]; 0.000064 μM
  inhibition at 64 pM: 7.74%
[4]; 0.000320 μM
  inhibition at 0.00032 µM: 9.52%
[4]; 0.001600 μM
  inhibition at 0.0016 µM: 80%
[4]; 0.008000 μM
  inhibition at 0.008 µM: 94.2%
[4]; 0.040000 μM
  inhibition at 0.04 µM: 97.1%
[4]; 0.200000 μM
  inhibition at 0.2 µM: 98.3%
[4]; 1.000000 μM
  inhibition at 1 µM: 98.2%
[4]; 5.000000 μM
  inhibition at 5 µM: 97.7%
